Assay results from patent publication US20260344665A1, “FUNGICIDAL COMPOUND” (priority 2022, published 2026).
Like-named read-outs stand apart in the source and are kept apart here.

Tests used:
Magnaporthe grisea = format: in vivo, Magnaporthe grisea (Pyricularia oryzae); details: rice, preventive
[1] = tested on: Puccinia recondita f. sp. tritici; test: Puccinia recondita f. sp. tritici / wheat / leaf disc curative (brown rust); format: in vivo; details: for % reduction fungal growth: wheat
Experimental: (§1) Leaf disks or leaf segments of various plant species were cut from plants grown in the greenhouse. The cut leaf discs or segments were placed in multiwell plates (24-well format) onto water agar. The leaf disks were sprayed with a test solution before (preventative) or after (curative) inoculation. Compounds to be tested were prepared as water solutions (max. 10 mg/ml) which were diluted to the appropriate concentration with 0.025% Tween20 just before spraying. The inoculated leaf discs or segments were incubated under defined conditions (temperature, relative humidity, light, etc.) according to the respective test system. A single evaluation of disease level was carried out 3-9 days days after inoculation, depending on the pathosystem. Percent disease control relative to the untreated check leaf discs or segments was then calculated.
Puccinia recondita f. sp. tritici/Wheat/Leaf Disc Curative (Brown Rust)
Wheat leaf segments cv. Kanzler were placed on agar in multiwell plates (24-well format). The leaf segments were inoculated with a spore suspension of the fungus. Plates were stored in darkness at 19 °C and 75% rh. The formulated test compound diluted in water was applied 1 day after inoculation. The leaf segments were incubated at 19 °C and 75% rh under a light regime of 12 h light/12 h darkness in a climate cabinet and the activity of a compound was assessed as percent disease control compared to untreated when an appropriate level of disease damage appeared in untreated check leaf segments (6-8 days after application).

[2] = tested on: Puccinia recondita f. sp. tritici; test: Puccinia recondita f. sp. tritici / wheat / leaf disc preventative (brown rust); format: in vivo; details: for % reduction fungal growth: wheat, preventive
Experimental: as §1
Puccinia recondita f. sp. tritici/Wheat/Leaf Disc Preventative (Brown Rust)
Wheat leaf segments cv. Kanzler were placed on agar in multiwell plates (24-well format) and sprayed with the formulated test compound diluted in water. The leaf disks were inoculated with a spore suspension of the fungus 1 day after application. The inoculated leaf segments were incubated at 19 °C and 75% rh under a light regime of 12 h light/12 h darkness in a climate cabinet and the activity of a compound was assessed as percent disease control compared to untreated leaf when an appropriate level of disease damage appeared in untreated check leaf segments (7-9 days after application).

CC(=O)NC1C(OCC(OC2OC(CO)C(O)C(O)C2O)C2OC(OC3C(O)C(CO)OC(OC4(CO)OC(C(O)CO)C(O)C4OC4OC(CO)C(O)C(O)C4O)C3O)C(O)C(O)C2OC2OC(C(O)CO)C(O)C(O)C2OC2OCC(OC(N)=O)C(O)C2O)OC(CO)C(O)C1O (centres unmarked) [compound of Formula (I)]
% reduction fungal growth (Magnaporthe grisea; 0.80 ppm): 0%
% reduction fungal growth (Magnaporthe grisea; 2.50 ppm): 0%
% reduction fungal growth (Magnaporthe grisea; 7.40 ppm): 0%
% reduction fungal growth (Magnaporthe grisea; 22.00 ppm): 60%
% reduction fungal growth (Magnaporthe grisea; 67.00 ppm): 70%
% reduction fungal growth (Magnaporthe grisea; 200.00 ppm): 100%
curative activity to control Puccinia recondita [1]: curative (infection of pathogen followed by application of compound) activity
% reduction fungal growth ([1]; 0.80 ppm): 0%
% reduction fungal growth ([1]; 2.50 ppm): 0%
% reduction fungal growth ([1]; 7.40 ppm): 0%
% reduction fungal growth ([1]; 22.00 ppm): 90%
% reduction fungal growth ([1]; 67.00 ppm): 100%
% reduction fungal growth ([1]; 200.00 ppm): 100%
preventive activity to control Puccinia recondita [2]: preventive (application of compound followed by infection with pathogen)
% reduction fungal growth ([2]; 0.80 ppm): 0%
% reduction fungal growth ([2]; 2.50 ppm): 0%
% reduction fungal growth ([2]; 7.40 ppm): 0%
% reduction fungal growth ([2]; 22.00 ppm): 0%
% reduction fungal growth ([2]; 67.00 ppm): 45%
% reduction fungal growth ([2]; 200.00 ppm): 95%
